“And” between values parts separate entries of the source, which are not always exact repeats. Equal entries are not always repeated. Inconclusive results and toxic doses are left out. Peptide text beside a SMILES is read from it. * marks the point of attachment. Cbz = O=C(OCc1ccccc1)*
Tested on: BDF1 mice, B16 melanoma ip, median survival T/C
Test: NCI In Vivo Anticancer Drug Screen. Data for tumor model B16 Melanoma (intraperitoneal) in B6D2F1 (BDF1) mice
Details: endpoint: median survival time, higher = longer survival
Outline: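 Mice with transplantable tumors; drug vs vehicle groups; endpoint survival or tumor size; value = T/C.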

[1] = dose: 100.0 mg/kg/injection, schedule: Q01DX009 (ip), vehicle: saline with Tween-80
[2] = dose: 200.0 mg/kg/injection, schedule: Q01DX009 (ip), vehicle: saline with Tween-80
[3] = dose: 12.5 mg/kg/injection, schedule: Q01DX009 (ip), vehicle: Klucel (hydroxypropylcellulose) (HPC)
[4] = dose: 25.0 mg/kg/injection, schedule: Q01DX009 (ip), vehicle: Klucel (hydroxypropylcellulose) (HPC)
[5] = dose: 50.0 mg/kg/injection, schedule: Q01DX009 (ip), vehicle: Klucel (hydroxypropylcellulose) (HPC)
[6] = dose: 100.0 mg/kg/injection, schedule: Q01DX009 (ip), vehicle: Klucel (hydroxypropylcellulose) (HPC)
[7] = dose: 6.25 mg/kg/injection, schedule: Q01DX009 (ip), vehicle: Klucel (hydroxypropylcellulose) (HPC)
[8] = dose: 200.0 mg/kg/injection, schedule: Q01DX009 (ip), vehicle: Klucel (hydroxypropylcellulose) (HPC)
[9] = dose: 400.0 mg/kg/injection, schedule: Q01DX009 (ip), vehicle: Klucel (hydroxypropylcellulose) (HPC)
[10] = dose: 3.13 mg/kg/injection, schedule: Q01DX009 (ip), vehicle: saline with Tween-80
[11] = dose: 6.25 mg/kg/injection, schedule: Q01DX009 (ip), vehicle: saline with Tween-80
[12] = dose: 12.5 mg/kg/injection, schedule: Q01DX009 (ip), vehicle: saline with Tween-80
[13] = dose: 50.0 mg/kg/injection, schedule: Q01DX009 (ip), vehicle: saline with Tween-80
[14] = dose: 20.0 mg/kg/injection, schedule: Q01DX009 (ip), vehicle: saline with Tween-80
[15] = dose: 40.0 mg/kg/injection, schedule: Q01DX009 (ip), vehicle: saline with Tween-80
[16] = dose: 50.0 mg/kg/injection, schedule: Q01DX009 (ip), vehicle: saline
[17] = dose: 100.0 mg/kg/injection, schedule: Q01DX009 (ip), vehicle: saline
[18] = dose: 200.0 mg/kg/injection, schedule: Q01DX009 (ip), vehicle: saline

CC1CCCCC1NC(=O)NCCOC(=O)OCCNC(=O)NC1CCCCC1C (stereo not given)
T/C [1]: 97 % of control | T/C [2]: 95 % of control | T/C (dose: 400.0 mg/kg/injection, schedule: Q01DX009 (ip), vehicle: saline with Tween-80): 97 % of control

CCC1OC(=O)CC(O)C(C)C(OC2OC(C)C(O)C(N(C)C)C2O)C(CC=O)CC(C)C(=O)/C=C/C2(C)OC2C1C (stereo not given)
T/C [3]: 96 % of control | T/C [4]: 97 % of control | T/C [5]: 98 % of control | T/C [6]: 88 % of control

COc1cc2cc[n+](C)c(Cc3ccccc3)c2cc1OC
T/C (dose: 3.12 mg/kg/injection, schedule: Q01DX009 (ip), vehicle: Klucel (hydroxypropylcellulose) (HPC)): 102 % of control | T/C [7]: 102 % of control | T/C [3]: 102 % of control | T/C [4]: 104 % of control

C=Cc1c(C)c2cc3[nH]c(cc4nc(cc5nc(cc1[nH]2)C(C)=C5CCC(=O)O)C(CCC(=O)O)=C4C)c(C)c3C=C
T/C [7]: 97 % of control | T/C [3]: 104 % of control | T/C [4]: 104 % of control | T/C [5]: 101 % of control

COC(=O)C(C)CN1CCCCCC1 (stereo not given)
T/C (dose: 50.0 mg/kg/injection, schedule: Q04DX003 (ip), vehicle: saline): 108 % of control | T/C (dose: 100.0 mg/kg/injection, schedule: Q04DX003 (ip), vehicle: saline): 102 % of control | T/C (dose: 200.0 mg/kg/injection, schedule: Q04DX003 (ip), vehicle: saline): 100 % of control

COc1ccc(Br)cc1/C=N\NS(=O)(=O)c1ccc(C)cc1
T/C [6]: 94 % of control | T/C [1]: 90 % of control | T/C [8]: 110 % of control | T/C [2]: 95 % of control | T/C [9]: 100 % of control

Nc1ccc(S(=O)(=O)N/N=C/c2ccccc2[N+](=O)[O-])cc1
T/C [10]: 115 % of control | T/C [11]: 96 % of control and 123 % of control | T/C [12]: 99 % of control and 122 % of control | T/C (dose: 25.0 mg/kg/injection, schedule: Q01DX009 (ip), vehicle: saline with Tween-80): 105 % of control | T/C [13]: 118 % of control

[Cl][Pt+2][Cl].[NH-]c1cc(Cl)c(Cl)c(Cl)c1[NH-]
T/C (dose: 1.25 mg/kg/injection, schedule: Q01DX009 (ip), vehicle: saline with Tween-80): 98 % of control | T/C (dose: 2.5 mg/kg/injection, schedule: Q01DX009 (ip), vehicle: saline with Tween-80): 104 % of control | T/C (dose: 5.0 mg/kg/injection, schedule: Q01DX009 (ip), vehicle: saline with Tween-80): 103 % of control | T/C (dose: 10.0 mg/kg/injection, schedule: Q01DX009 (ip), vehicle: saline with Tween-80): 110 % of control | T/C [14]: 113 % of control | T/C [15]: 117 % of control

CC(C)N(CCCO)C(C)C
T/C [13]: 101 % of control | T/C [1]: 97 % of control

NC(N)=NOCC[C@@H](N)C(=O)O
T/C [16]: 105 % of control | T/C [17]: 101 % of control | T/C [18]: 100 % of control | T/C (dose: 400.0 mg/kg/injection, schedule: Q01DX009 (ip), vehicle: saline): 99 % of control

O=C(NCCO)Nc1ccc(Cl)c(Cl)c1
T/C (dose: 90.0 mg/kg/injection, schedule: Q01DX009 (ip), vehicle: other): 102 % of control | T/C (dose: 100.0 mg/kg/injection, schedule: Q01DX009 (ip), vehicle: other): 100 % of control | T/C (dose: 200.0 mg/kg/injection, schedule: Q01DX009 (ip), vehicle: other): 94 % of control | T/C (dose: 300.0 mg/kg/injection, schedule: Q01DX009 (ip), vehicle: other): 87 % of control | T/C (dose: 400.0 mg/kg/injection, schedule: Q01DX009 (ip), vehicle: other): 90 % of control

CCN(CC)CCN(C)C
T/C [16]: 118 % of control | T/C [17]: 112 % of control | T/C [18]: 103 % of control

Cc1ccc(NC(=O)Nc2ccc(C)c(NC(=O)Nc3ccc(C)cc3C)c2)c(C)c1
T/C [6]: 91 % of control | T/C [8]: 96 % of control

O=C(NC(Cc1ccccc1)C(=O)NC(CO)C(=O)O)OCc1ccccc1 (stereo not drawn) (Cbz-Phe-Ser-OH; configuration not given here)
T/C [13]: 95 % of control | T/C [1]: 90 % of control

COc1ccc2c(c1)CCC1=C2CCC2(C)C(=O)OC(=O)C12 (stereo not given)
T/C [6]: 103 % of control | T/C [8]: 96 % of control | T/C [9]: 100 % of control

CC(C)(C)c1cc([N+](=O)[O-])cc([N+](=O)[O-])c1O
T/C (dose: 1.56 mg/kg/injection, schedule: Q01DX009 (ip), vehicle: saline with Tween-80): 99 % of control | T/C [10]: 96 % of control | T/C [11]: 93 % of control | T/C [12]: 89 % of control

Cc1ccc2c(Nc3ccc(NS(C)(=O)=O)cc3)c3ccccc3nc2c1C
T/C (dose: 5.0 mg/kg/injection, schedule: Q01DX009 (ip), vehicle: saline sonified): 90 % of control | T/C (dose: 20.0 mg/kg/injection, schedule: Q01DX009 (ip), vehicle: other): 117 % of control | T/C [14]: 158 % of control | T/C (dose: 40.0 mg/kg/injection, schedule: Q01DX009 (ip), vehicle: saline sonified): 185 % of control | T/C [15]: 163 % of control | T/C [16]: 100 % of control

From PubChem BioAssay AID192 (DTP/NCI, 2004)
